± gives the expanded uncertainty stated by the source.
Assay: mn = molality of the nth substance listed, in mol/kg
Settings: 298.15 K; 101.33 kPa; Liquid; Calvet calorimetry; m1 = 0.1

Row | molar enthalpy of solution [kcal/mol] | SMILES
1 | 1.86 ± 0.0359 | C[C@H](N)C(=O)O [(S)-2-aminopropanoic acid] + O
2 | 3.38 ± 0.0526 | NCC(=O)O [2-aminoacetic acid] + O
3 | 2.69 ± 0.0454 | N[C@@H](CO)C(=O)O [L-serine] + O
